# Measured values: US5786330A, “Peptide compounds which are therapeutically active in the cascade of blood coagulation, process for preparing them and pharmaceutical compositions containing them” (Adir et Compagnie, priority 1993, dated 1998)
# *1 amine or outer side, *2 acyl side, *3 side chain or, on linkers, in order; H or OH if unused. Where a SMILES comes first, the peptide text is derived from it. [ ]: non-standard residue; d: D form. Phe(4-PO3H2) = N[C@@H](Cc1ccc(P(=O)(O)O)cc1)C(=O)O; Oic = O=C(O)[C@@H]1C[C@@H]2CCCC[C@@H]2N1; X1 = O=C([C@@H]1C2CCC(CC2)N1[*:1])[*:2]
# How the values were obtained:
# human thrombin [1] = molecular target: T1, human thrombin (Homo sapiens, UniProt P00734); test: inhibition of thrombin, chromogenic substrate H-D-Phe-Pip-Arg-pNA (S 2238); type: biochemical; conditions: 20 C, 405 nm
# T1 construct: human thrombin (Sigma, specific activity 3230 NIHU/mg); purchased Sigma
# Protocol: (§1) In order to evaluate in vitro the inhibitory activity of the products of the invention on human thrombin (Sigma, specific activity 3230 NIHU/mg), human fibrinogen (purified or plasmatic) (Fg) or the chromogenic substrate H-D-Phe-Pip-Arg-pNA ([…], S 2238, Kabi) were added to a given quantity of thrombin (0.7 or 2 nM) previously incubated with or without the test inhibitor (20 C, 10 min).
# (§2) In order to evaluate in vitro the selectivity of these products towards various coagulation serine proteases, the same procedure was applied to purified human plasmin (2 nM, Stago), to purified human activated factor X (2 nM, Stago), to kallikrein (2 nM, sigma), to urokinase (2 nM, sigma), to plasminogen tissue activator (t-PA; 2 nM, Stago) and to purified human activated protein C (2 nM, Stago) using, as substrate, various paranitroanilide-containing peptides. The inhibitors, enzymes and substrates are diluted in the same buffer ([…] phosphate buffer pH 7.4, containing 0.12M sodium chloride and 0.05% bovine serum albumin) and then distributed in a polystyrene microplate in a volume of 50 l.
# (§3) The fibrin formed by thrombin or the paranitroanilide liberated by the action of the serin protease is measured spectrophotometrically at 405 nm after reacting for 15 to 30 minutes at 20° C. […] The results are expressed in IC50 value: the concentration in nM which inhibits the enzymatic activity by 50%.
# human thrombin [2] = molecular target: T1, human thrombin; test: inhibition of thrombin, fibrinogen as substrate; type: biochemical; conditions: 20 C, fibrin measured at 405 nm
# Protocol: as §1, §2, §3
# kallikrein = test: selectivity towards coagulation serine proteases: kallikrein; type: biochemical; conditions: 2 nM enzyme, paranitroanilide-containing peptide substrate; read-out: IC50 with respect to kallikrein
# Protocol: as §2, §3
# [3] = molecular target: T2, plasminogen tissue activator (t-PA) (Homo sapiens, UniProt P00750); test: selectivity towards coagulation serine proteases: t-PA; type: biochemical; conditions: 2 nM enzyme, paranitroanilide-containing peptide substrate; read-out: IC50 with respect to t-PA
# T2 construct: purchased Stago
# T2 sequence (P00750 23-562 limits assumed, species assumed): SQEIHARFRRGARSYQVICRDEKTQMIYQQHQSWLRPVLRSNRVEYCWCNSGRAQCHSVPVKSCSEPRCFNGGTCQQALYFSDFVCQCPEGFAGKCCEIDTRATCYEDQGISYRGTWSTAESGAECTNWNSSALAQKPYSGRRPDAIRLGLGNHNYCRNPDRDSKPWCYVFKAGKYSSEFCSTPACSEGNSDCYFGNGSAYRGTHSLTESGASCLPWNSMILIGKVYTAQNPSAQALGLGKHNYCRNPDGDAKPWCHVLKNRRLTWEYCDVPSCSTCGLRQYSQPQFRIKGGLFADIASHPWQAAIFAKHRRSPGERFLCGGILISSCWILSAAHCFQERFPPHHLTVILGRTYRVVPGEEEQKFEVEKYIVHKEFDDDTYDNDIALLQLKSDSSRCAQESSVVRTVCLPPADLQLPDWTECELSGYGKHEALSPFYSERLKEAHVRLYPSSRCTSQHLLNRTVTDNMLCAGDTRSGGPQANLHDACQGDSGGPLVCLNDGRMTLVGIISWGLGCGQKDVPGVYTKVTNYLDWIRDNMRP
# Protocol: as §2, §3
# [4] = system: thrombin time (TT), human plasma; test: thrombin time (TT) in vitro on human plasma; type: biochemical; conditions: human plasma low in platelets, citrate
# Protocol: (§4) In the presence of a standard quantity of thrombin or activated cephalin, a normal plasma coagulates within a defined and constant time called thrombin time (TT) and activated cephalin time (ACT) respectively. The extension of these coagulation times by pharmacological substances reflects an anticoagulant effect.
# (§5) The in vitro effect of the products of the invention was measured on human plasma. Blood was collected by venous puncture in a tube containing citrate. After decantation (1200 g, 10 min), the plasma low in platelets is decanted so as to then carry out the coagulation tests. […] The compound of Example 1 doubles the TT at the concentration of […] and the ACT at the concentration of […].
# [5] = molecular target: T3, purified human activated factor X (Homo sapiens, UniProt P00742); test: selectivity towards coagulation serine proteases: activated factor X; type: biochemical; conditions: 2 nM enzyme, paranitroanilide-containing peptide substrate; read-out: IC50 with respect to activated factor X
# T3 construct: purchased Stago
# T3 sequence (P00742 235-488 limits assumed): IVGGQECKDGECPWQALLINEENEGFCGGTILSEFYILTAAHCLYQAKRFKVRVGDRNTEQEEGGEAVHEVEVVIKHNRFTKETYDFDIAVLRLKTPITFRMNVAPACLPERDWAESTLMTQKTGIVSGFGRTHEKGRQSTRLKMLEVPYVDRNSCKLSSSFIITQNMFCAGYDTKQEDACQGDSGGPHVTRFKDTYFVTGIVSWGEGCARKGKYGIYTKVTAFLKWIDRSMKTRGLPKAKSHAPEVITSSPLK
# T3 sequence (P00742 41-179 limits assumed): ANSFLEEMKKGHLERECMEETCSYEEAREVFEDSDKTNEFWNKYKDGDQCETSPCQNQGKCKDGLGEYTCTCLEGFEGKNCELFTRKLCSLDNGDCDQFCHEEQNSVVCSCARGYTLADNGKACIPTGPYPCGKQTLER
# Protocol: as §2, §3
# [6] = molecular target: T4, purified human activated protein C (Homo sapiens, UniProt P04070); test: selectivity towards coagulation serine proteases: activated protein C; type: biochemical; conditions: 2 nM enzyme, paranitroanilide-containing peptide substrate; read-out: IC50 with respect to activated protein C
# T4 construct: purchased Stago
# T4 sequence (P04070 212-450 limits assumed): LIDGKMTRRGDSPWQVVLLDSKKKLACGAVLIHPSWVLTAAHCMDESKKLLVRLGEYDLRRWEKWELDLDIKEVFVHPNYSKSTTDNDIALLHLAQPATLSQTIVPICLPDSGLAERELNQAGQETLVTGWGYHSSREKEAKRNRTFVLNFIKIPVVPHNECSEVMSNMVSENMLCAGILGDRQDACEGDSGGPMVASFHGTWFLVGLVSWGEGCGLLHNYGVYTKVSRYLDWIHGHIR
# T4 sequence (P04070 43-197 limits assumed): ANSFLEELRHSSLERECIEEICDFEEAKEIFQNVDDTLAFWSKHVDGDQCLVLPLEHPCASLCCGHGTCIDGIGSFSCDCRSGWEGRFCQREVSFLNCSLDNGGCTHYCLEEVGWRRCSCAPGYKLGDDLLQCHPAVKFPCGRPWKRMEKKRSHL
# Protocol: as §2, §3
# male OFA rats = test: venous thrombosis induced by ligation of the vena cava inferior (weight of the clot); type: in vivo; conditions: rat, clot withdrawn 25 minutes after ligation
# Protocol: The test animals are anesthetized by administration of sodium pentobarbital (50 mg/kg i.p.). 15 minutes before the ligation, the animals are treated with the test products via the i.v. route. The clot is withdrawn from the vena cava 25 minutes after the ligation, it is weighed after desiccation (24 hours at 60 C.).
# [7] = system: thrombin time (TT), OFA rats; test: thrombin time (TT) ex vivo in OFA rats; conditions: rat, 0.8 mg/kg i.v.
# Protocol: as §4
# (§6) The effect of the products was tested ex vivo in OFA rats anesthetized with sodium pentobarbital (60 mg/kg i.p.) The carotid artery and the jugular vein are catheterized. After installation of the catheters, 1.5 cm^3 of arterial blood are collected over citrate (0.109M). 30 minutes later, the test product is administered in a volume of 1 ml by i.v. Arterial samples (1.5 cm^3) are then collected at […], 3 min, 5 min, 15 min, 30 min and 60 min. At each collection of sample, 1.5 cm^3 of citrated physiological saline is reinjected into the animal via the carotid.
# [8] = system: activated cephalin time (ACT), human plasma; test: activated cephalin time (ACT) in vitro on human plasma; type: biochemical; conditions: human plasma low in platelets, citrate
# Protocol: as §4, §5
# purified human plasmin = molecular target: T5, purified human plasmin (Homo sapiens, UniProt P00747); test: selectivity towards coagulation serine proteases: plasmin; type: biochemical; conditions: 2 nM enzyme, paranitroanilide-containing peptide substrate; read-out: IC50 with respect to plasmin
# T5 construct: purified human plasmin (2 nM, Stago); purchased Stago
# T5 sequence (P00747 581-810 limits assumed): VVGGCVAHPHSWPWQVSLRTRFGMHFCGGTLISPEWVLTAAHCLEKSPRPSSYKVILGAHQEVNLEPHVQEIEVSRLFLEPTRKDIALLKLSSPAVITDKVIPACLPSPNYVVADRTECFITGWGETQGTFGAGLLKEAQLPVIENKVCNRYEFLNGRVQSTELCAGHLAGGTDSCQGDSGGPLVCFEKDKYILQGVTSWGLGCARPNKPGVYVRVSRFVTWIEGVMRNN
# T5 sequence (P00747 97-580 limits assumed): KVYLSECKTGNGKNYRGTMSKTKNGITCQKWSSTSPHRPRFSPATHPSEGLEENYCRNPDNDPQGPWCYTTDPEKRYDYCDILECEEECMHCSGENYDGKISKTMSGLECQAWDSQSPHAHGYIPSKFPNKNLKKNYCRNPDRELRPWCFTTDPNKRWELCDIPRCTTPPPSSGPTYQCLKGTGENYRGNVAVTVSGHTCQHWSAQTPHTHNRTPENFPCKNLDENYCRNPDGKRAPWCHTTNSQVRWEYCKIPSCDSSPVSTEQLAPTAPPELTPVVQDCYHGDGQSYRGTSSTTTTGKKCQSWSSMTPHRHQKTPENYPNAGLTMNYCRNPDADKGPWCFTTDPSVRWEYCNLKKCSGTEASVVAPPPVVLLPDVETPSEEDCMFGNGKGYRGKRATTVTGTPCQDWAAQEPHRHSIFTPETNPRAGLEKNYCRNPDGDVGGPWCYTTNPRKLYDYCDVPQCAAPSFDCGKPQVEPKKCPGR
# Protocol: as §2, §3
# urokinase = molecular target: T6, urokinase (Homo sapiens, UniProt P00749); test: selectivity towards coagulation serine proteases: urokinase; type: biochemical; conditions: 2 nM enzyme, paranitroanilide-containing peptide substrate; read-out: IC50 with respect to urokinase
# T6 construct: purchased sigma
# Protocol: as §2, §3
# [9] = system: activated cephalin time (ACT), OFA rats; test: activated cephalin time (ACT) ex vivo in OFA rats; conditions: rat, 0.8 mg/kg i.v.
# Protocol: as §4, §6
structure (smiles),measurement,setting,value
"CC[C@H](C)[C@H](NC(=O)[C@@H]1C2CCC(CC2)N1C(=O)[C@H](CCC(=O)O)NC(=O)[C@H](Cc1ccccc1)NC(=O)[C@H](CC(=O)O)NC(=O)CNC(=O)[C@H](CC(N)=O)NC(=O)CNC(=O)CNC(=O)CNC(=O)CNC(=O)[C@@H]1CCCN1C(=O)[C@H](CCCNC(=N)N)NC(=O)[C@@H]1C[C@@H]2CCCC[C@@H]2N1C(=O)[C@H](N)Cc1ccccc1)C(=O)N1CCC[C@H]1C(=O)N[C@@H](CCC(=O)O)C(=O)N[C@@H](CCC(=O)O)C(=O)N[C@@H](Cc1ccc(P(=O)(O)O)cc1)C(=O)N[C@@H](CC(C)C)C(=O)N[C@H](CCC(=O)O)C(=O)O [Example 2, H-phe-Oic-Arg-Pro-(Gly)4 -Asn-Gly-Asp-Phe-Glu-Abo-Ile-Pro-(Glu)2 -Phe(pPO3 H2)-Leu-glu-OH] (H-[dF][Oic]RPGGGGNGDFE[X1]IPEE[Phe(4-PO3H2)]L[dE]-OH)",IC50,human thrombin [1],15 nM
same,IC50,human thrombin [2],4 nM
"CC[C@H](C)[C@H](NC(=O)[C@@H]1C2CCC(CC2)N1C(=O)[C@H](CCC(=O)O)NC(=O)[C@H](Cc1ccccc1)NC(=O)[C@H](CC(=O)O)NC(=O)CNC(=O)[C@H](CC(N)=O)NC(=O)CNC(=O)CNC(=O)CNC(=O)CNC(=O)[C@@H]1CCCN1C(=O)[C@H](CCCNC(=N)N)NC(=O)[C@@H]1CCCN1C(=O)[C@H](N)Cc1ccccc1)C(=O)N1CCC[C@H]1C(=O)N[C@@H](CCC(=O)O)C(=O)N[C@@H](CCC(=O)O)C(=O)N[C@@H](Cc1ccc(P(=O)(O)O)cc1)C(=O)N[C@@H](CC(C)C)C(=O)N[C@H](CCC(=O)O)C(=O)O [Example 1, H-phe-Pro-Arg-Pro-(Gly)4 -Asn-Gly-Asp-Phe-Glu-Abo-Ile-Pro-(Glu)2 -Phe(pPO3 H2)-Leu-glu-OH] (H-[dF]PRPGGGGNGDFE[X1]IPEE[Phe(4-PO3H2)]L[dE]-OH)",IC50,human thrombin [1],18 nM
same,IC50,human thrombin [2],6.1 nM
CC[C@H](C)[C@H](NC(=O)[C@H](CCC(=O)O)NC(=O)[C@H](CCC(=O)O)NC(=O)[C@H](Cc1ccccc1)NC(=O)[C@H](CC(=O)O)NC(=O)CNC(=O)[C@H](CC(N)=O)NC(=O)CNC(=O)CNC(=O)CNC(=O)CNC(=O)[C@@H]1CCCN1C(=O)[C@H](CCCNC(=N)N)NC(=O)[C@@H]1CCCN1C(=O)[C@H](N)Cc1ccccc1)C(=O)N1CCC[C@H]1C(=O)N[C@@H](CCC(=O)O)C(=O)N[C@@H](CCC(=O)O)C(=O)N[C@@H](Cc1ccc(O)cc1)C(=O)N[C@@H](CC(C)C)C(=O)O [hirulog-1],IC50,kallikrein,> 33000 nM
same,IC50,[3],> 33000 nM
same,concentration that doubles the TT,[4],0.07 M
same,IC50,[5],> 33000 nM
same,IC50,[6],> 33000 nM
same,Decrease in the weight of the clot in %,male OFA rats; 0.1 mg/kg i.v. 15 minutes before ligation,-0%
same,Decrease in the weight of the clot in %,male OFA rats; 1 mg/kg i.v. 15 minutes before ligation,-46%
same,Increase in the TT (multiplicative factor),[7]; 1.5 min,13
same,Increase in the TT (multiplicative factor),[7]; 3 min,11
same,Increase in the TT (multiplicative factor),[7]; 5 min,9.8
same,Increase in the TT (multiplicative factor),[7]; 15 min,6.6
same,Increase in the TT (multiplicative factor),[7]; 30 min,4.2
same,Increase in the TT (multiplicative factor),[7]; 60 min,2.2
same,concentration that doubles the ACT,[8],0.2 M
same,IC50,purified human plasmin,> 33000 nM
same,IC50,urokinase,> 33000 nM
same,Increase in the ACT (multiplicative factor),[9]; 1.5 min,3.8
same,Increase in the ACT (multiplicative factor),[9]; 3 min,3.2
same,Increase in the ACT (multiplicative factor),[9]; 5 min,2.6
same,Increase in the ACT (multiplicative factor),[9]; 15 min,2.1
same,Increase in the ACT (multiplicative factor),[9]; 30 min,1.6
same,Increase in the ACT (multiplicative factor),[9]; 60 min,1.3
